These results are taken from patent publication US4055640A, “Compositions and methods for controlling the growth of bacteria, fungi and algae using certain derivatives of N-(2,2-dichlorovinyl)salicylamides” (Nippon Kayaku Co., Ltd., priority 1975, dated 1977).

Data set [1] relates to bacteria gathered from circular water system. Put plainly: Degree of propagation on slime test boards (Example 27). The data set is classed as cell-based. Conditions: shaking culture for 2 days. Here is the method: (§1) Zero point zero two (0.02) part of active compounds in the form of 10% water soluble concentrate which was prepared by Example 23 was added into 100 parts of Waxman's liquid medium. Peices of Wood iron (hereafter referred to as the slime test boards) were soaked into the Waxman's liquid medium. The bacteria which were gathered from circular water system were inoculated upon the Waxman's liquid medium and incubated at 27°-34° C by shaking culture for 2 days. The degree of propagation of the bacteria on the slime test boards was examined.
(§2) Thegrowth-inhibiting activity of active compounds against the fungi and the green algae was also examined by the same method as mentioned above.
(§3) The degree of propagation of the bacteria, fungi or green algae on the test boards is defined in terms of the following symbols.

The test system of another data set is green algae. The description is as above. The data set is classed as cell-based. As to conditions: same method, shaking culture for 2 days. The procedure:
as §1, §2, §3

For a further data set, the system named is fungi. The data set is described as above. The data set is classed as cell-based. Conditions: same method, shaking culture for 2 days. Here is the method:
as §1, §2, §3

The subject of data set [2] is Aspergillus niger, Penicillium citrinum, Cladosporium harbarum and chaetomium globosum. Put plainly: Degree of growth inhibition of fungi on treated beach plates (Example 25). The data set is classed as cell-based. On the set-up: scale not given here. As to conditions: numerical rating, 2 weeks. The procedure:
The emulsifiable concentrates which were prepared by Example 20 were diluted with water 400 times and 800 times to form emulsions.
The square plates of beach of which a side was 5 cm long and thickness was 5 mm were dipped into the emulsion for 2 minutes and dried for 24 hours at room temperature.
The square plates were placed on the surface of agar plates. The suspensions which contained spores of Aspergillus niger, Penicillium citrinum, Cladosporium harbarum and chaetomium globosum were respectively sprayed on the agar plates and the square plates.
The test fungi were cultivated in the incubator at the humidity of 95% and the temperature of 28° C for 2 weeks. The degree of growth inhibition is defined in terms of the following numerical ratings.

For the next data set, the system named is Staphylococcus oureus. Put plainly: Region of growth-inhibition around treated cotton cloth (Example 26). The data set is classed as cell-based. As to conditions: emulsifiable concentrate diluted 100 times. Here is the method: (§4) The emulsifiable concentrates which were prepared by Example 20 were diluted with water 100 times to form an emulsion. A cloth of cotton was soaked into each emulsion for 2 minutes. The clothes were dried at room temperature and cut into a square of which a side was 1 cm long. Each kind of test bacteria and fungi was inoculated, separately, on plates of potato-agar and one square cloth placed on each of such plates. Test bacteria and fungi were cultivated at 28° C for 4 days. The width of the region of growth-inhibition which was formed a circumference of the cloth was measured.

A further data set has as its system Aspergillus niger. The description is as above. The data set is classed as cell-based. As to conditions: emulsifiable concentrate diluted 100 times. The procedure:
as §4

The subject of a further data set is Penicillium Citrinum. Described as above. Conditions: emulsifiable concentrate diluted 100 times. The data set is classed as cell-based. The procedure: as §4
In another data set the test system is Bacillus subtilis. Described as above. The class given is cell-based. As to conditions: emulsifiable concentrate diluted 100 times. The procedure:
as §4

Data set [3] deals with Fusarium wilt of cucumber. Put plainly: Exterminating test on Fusarium wilt of cucumber (Experimental Example 4). The data set is classed as in vivo, Fusarium oxysporum f, cucumerinum. Conditions: Fusarium, soil, 336 h, 500 ppm, soil drench 100 ml per pot, two weeks; read-out: Percentage of healthy seedlings. The procedure:
Exterminating test on Fusarium wilt of cucumber Twenty (20) grams of infected soil was added uniformly into each pot which was filled with steam sterilized field soil, then 18 seeds of cucumber (variety; Tokiwazibai) were sowed in each pot. Eighty percent (80%) wettable powder of the present invention was diluted with water to obtain a suspension, and each pot was drenched with the suspension in an amount of 100 ml. Fifty percent (50%) wettable powder of methyl-1-(butylcarbamoyl) 2-benzimidazol carbamate (hereinafter referred to as Benlate) on the market was used as a control and tested by the same method. After two weeks of planting, degrees attacked by the pathogen was observed and a "percentage of healthy seedlings" was calculated as follows: [formula]

Data set [4] deals with seedling blight of rice plant (pathogen Fusarium sp. and Rhizoctonia sp.). Put plainly: Exterminating test on seedling blight of rice plant (Experimental Example 1). The data set is classed as in vivo. As to conditions: soil, 408 h, 0.25g/box a.i., 5% dust mixed with soil; read-out: Percentage of healthy seedlings. Here is the method:
Exterminating test on seedling blight of rice plant Nursery boxes (60 × 30 × 3 cm) were filled with soil which were contaminated with pathogen (Fusarium sp. and Rhizoctonia sp.) The dust in which the present compound was contained in a ratio of 5% by weight was added in the box in a ratio of 5 grams per box and mixed well with soil. Thereafter, seeds of rice plant (variety: Nihonbare) were sowed in drills at a rate of 0.3 liter per box and grown up in a lighting chamber at 17° C. After 7 days from the sowing, the boxes were carried out in the field. Furthermore, 10 days thereafter the observations were made. Four percent (4%) dust of 3-hydroxy-5-methyl isoxazol (hereinafter referred to as hydroxyisoxazol) on the market was used as a control and tested by the same method. The test results are shown in Table 2 with a "percentage of healthy seedlings". The percentage of healthy seedlings was calculated as follows: […]

For data set [5], the system named is Rhizoctonia solani (damping-off of cucumber). Put plainly: Exterminating test on damping-off of cucumber (Experimental Example 3). The data set is classed as in vivo. As to conditions: Rhizoctonia solani, soil, 240 h, 1,000 ppm, soil drench 50 ml per pot, 10 days; read-out: Percentage of healthy seedlings. Here is the method: Exterminating test on damping-off of cucumber
The pots (diameter, 12 cm) were filled with field soil and then soil infected by adding Rhizoctonia solani in an amount of 5 grams per pot uniformly into the pots. Thereafter, 10 seeds of cucumber (variety: Azumamidori) were sown in each pot.
Eighty percent (80%) wettable powder of the present invention was diluted with water to obtain a suspension and each pot was drenched with the suspension in an amount of 50 milliliters. Then, the pots were transferred to the greenhouse. Fifty percent (50%) wettable powder of pentachloronitro benzene (hereinafter referred to as PCNB) on the market was used as a control and tested by the same method. After 10 days of the inoculation, degrees attacked by the pathogen were observed and a "Percentage of healthy seedlings" was calculated. The "Percentage of healthy seedlings" was calculated as follows: [formula]

In data set [6] the test system is botrytis cinerea (gray mold). Put plainly: Exterminating test on gray mold of tomato (Experimental Example 5). The class given is in vivo. Details: scale not given here. As to conditions: 48 hours after inoculation, kidney bean leaves. Here is the method: Exterminating test on gray mold of tomato The seedlings of kidney beans (variety: Orient) of 5-6 leaves stage were employed in this test. Eighty percent (80%) wettable powder of the present invention was diluted with water and sprayed over the seedlings in an amount of 10 ml per pot. The leaves were cut from the plant at 24 hours after spraying, and placed in the petri dishes (12 cm in diameter). Thereafter disks (5 mm in diameter) were cut with a cork borer from potato dextrose agar on which the pathogen (botrytis cinerea) was cultured. The disks were placed on the leaves. The dishes were placed in such a moistural condition as to cause the pathogen to propagate. Thiophanate methyl 70% wettable powder on the market was used as a control and tested by the same method. After forty eight (48) hours after inoculation, diameters of the lesions were observed, and an "Effect Index" was calculated as follows; [formula]

Data set [7] relates to seedlings of kidney beans (variety: Orient). Kind of data set: Phytotoxicity on kidney beans (Experimental Example 5). The class given is in vivo.
For data set [8], the system named is Xanthomonas citri (citrus canker). Kind of data set: Exterminating test on citrus canker (Experimental Example 6). As to conditions: Xanthomonas citri, 336 h, read-out: Effect Index, 1,000 ppm, 2 weeks after inoculation. The class given is in vivo. The procedure: (§5) Exterminating test on citrus canker. 4-year-old summer orange seedlings, planted in unglazed pots having a diameter of 20 cm, were employed in this test. Eighty percent (80%) wettable powder of the present invention was diluted with water, and sprayed over the seedlings in an amount of 50 ml per pot. The leaves of the seedlings were inoculated Xanthomonas citri by means of a needle. After the inoculation, the seedlings were maintained in a moist chamber at 25° C for 24 hours. Then the pots were transferred into the greenhouse. Streptomycin 20% wettable powder was used as a control, and tested by the same method. After 2 weeks after the inoculation, degrees of disease attack were observed, and an "Effect Index" was calculated as follows: [formula]

A further data set concerns summer orange seedlings. Put plainly: Phytotoxicity on summer orange seedlings (Experimental Example 6). Conditions: 1,000 ppm. The data set is classed as in vivo. Here is the method: as §5
Data set [9] relates to Cladosporium cucumerinum (cucumber scab). Kind of data set: Exterminating test on cucumber scab (Experimental Example 2). The class given is in vivo. Details: scale not given here. As to conditions: 500 ppm, 5 days after inoculation. Here is the method: Exterminating test on cucumber scab
(§6) The cucumber seeds (variety: Sagamihanjiro) were sown in pots (diameter 18 cm). Eighty percent (80%) wettable powder (contents of active compound: 80%) of the present invention was diluted with water to obtain a suspension. The suspension was sprayed over the cucumber seedlings of the stage of 3-4 leaves in an amount of 20 ml per pot. After 24 hours, these pots were inoculated by means of spray of spore suspension of Cladosporium cucumerinum. The thus-inoculated seedlings were placed in a moist chamber at 20° C for 24 hours. The pots were continuously kept in a greenhouse at 20° C. The following wettable powders on the market were used as controls.
70% wettable powder of 1,2-bis (3-methoxy carbonyl-2-thioureid) benzene (hereinafter referred to as "thiophanate methyl") on the market.
75% wettable powder of ethylene bis (dithiocarbamic acid) manganese (hereinafter referred to as "maneb") on the market. After 5 days of the inoculation, degrees attached by the pathogen were observed and the results were shown in Table 3 with an "Infected Index". The "Infected Index" was calculated as follows: [formula] A : Number of leaves which were killed by hard attack B : Number of leaves severely attacked
C : number of leaves slightly attacked
D : number of healthy leaves

Data set [10] relates to cucumber seedlings (variety: Sagamihanjiro). Put plainly: Phytotoxicity on cucumber seedlings (Experimental Example 2). The class given is in vivo. As to conditions: 500 ppm. The procedure:
as §6

As to `CC(=O)Oc1ccc(Cl)cc1C(=O)NC=C(Cl)Cl` [Compound No. 7, O-acetyl-N-(2',2'-dichlorovinyl)-5-chlorosalicylamide], the Degree of propagation result (in data set [1]; in the data set with green algae; in the data set on fungi) was “-” in each case. For the same molecule, the “Degree of growth inhibition” value in data set [2] (0.0125 %) and in [2] (0.025 %) was 5 in each case. Also, the “width of the region of growth-inhibition” value is reported as 11 mm in the data set with Staphylococcus oureus, 10 mm with Aspergillus niger, 10 mm in the data set on Penicillium Citrinum and 12 mm with Bacillus subtilis. Also, the pest or weed control at 500 ppm in data set [3] amounted to 76.5%. Further, the Percentage of healthy seedlings at 0.25 g/box in [4] amounted to 70.2%.

In the case of `CCCC(=O)Oc1ccccc1C(=O)NC=C(Cl)Cl` [compound 10], in data set [5], the pest or weed control at 1000 ppm is 100%. Further, the Degree of propagation entry in data set [1] is on record as “+ (the area of propagation is 1-25% on the slime test boards.)”; with green algae, “-”; with fungi it was “-”. Further, the “Degree of growth inhibition” value in [2] (0.0125 %) and in data set [2] (0.025 %) was 3 each time. Moreover, the “Effect Index” value in [6] (1,000 ppm) is 88. Besides, in data set [3], the pest or weed control at 500 ppm worked out at 70%. For the same molecule, the Percentage of healthy seedlings at 0.25 g/box in data set [4] is 72.1%. Besides, the Phytotoxicity result in data set [7] (1,000 ppm) is “Nil”.

Consider `CCOC(=O)Oc1ccccc1C(=O)NC=C(Cl)Cl` [compound 17], for which the pest or weed control at 1000 ppm in data set [5] amounted to 85%; in [8], 68.3%. The results for the Degree of propagation entry (in data set [1]; with green algae) were “-” and “+ (the area of propagation is 1-25% on the slime test boards.)”, respectively. Further, the “Degree of growth inhibition” value in data set [2] (0.0125 %) is on record as 2; in data set [2] (0.025 %), 3. Moreover, the “width of the region of growth-inhibition” value in the data set with Staphylococcus oureus was found to be 7 mm; in the data set with Aspergillus niger it was 5 mm; in the data set with Penicillium Citrinum, 6 mm; in the data set with Bacillus subtilis, 8 mm. In addition, the pest or weed control at 500 ppm in data set [3] was 47.5%. Also, the Phytotoxicity entry in the data set with summer orange seedlings is on record as “Nil”. In [4], the Percentage of healthy seedlings at 0.25 g/box turned out to be 68.3%.

Turning to `CC(C)C(=O)Oc1ccccc1C(=O)NC=C(Cl)Cl` [compound 11], the pest or weed control at 1000 ppm in data set [5] turned out to be 100%. Besides, the “Effect Index” value in [6] (1,000 ppm) is listed as 81. In [9], the “Infected Index” value stood at 10.1. For the same molecule, the pest or weed control at 500 ppm in data set [3] amounted to 65.5%. The Phytotoxicity entry in [10] and in data set [7] (1,000 ppm) was “Nil” throughout. The Percentage of healthy seedlings at 0.25 g/box in data set [4] is 68.7%.

In the case of `CCC(=O)Oc1ccccc1C(=O)NC=C(Cl)Cl` [Compound No. 9], in data set [5], the pest or weed control at 1000 ppm was 90%. The Degree of propagation result (in [1]; with green algae; in the data set with fungi) was “-” in each case. Further, the “Degree of growth inhibition” value in data set [2] (0.0125 %) and in [2] (0.025 %) was 3 throughout. In addition, the “width of the region of growth-inhibition” value in the data set with Staphylococcus oureus was found to be 7 mm; in the data set on Aspergillus niger, 6 mm; with Penicillium Citrinum, 6 mm; in the data set on Bacillus subtilis, 9 mm. Also, the pest or weed control at 500 ppm in data set [3] was 75%. The Percentage of healthy seedlings at 0.25 g/box in data set [4] was 69.8%.

With `COC(=O)NC(=S)Nc1ccccc1NC(=S)NC(=O)OC` [Thiophanate methyl, 1,2-bis (3-methoxy carbonyl-2-thioureid) benzene, reference compound], in data set [6] (500 ppm), the “Effect Index” value is 82. Besides, the “Infected Index” value in [9] is reported as 14.6. Also, the Phytotoxicity entry in data set [10] and in data set [7] (500 ppm) was “Nil” throughout.
